Experimental data published in patent US6630310B1, “Assay for binding between carbohydrate and glycolipid” (Biopolymer Engineering Pharmaceutical, Inc., priority 1996, dated 2003).

Assays:
[1] = tested on: human leukocyte membranes; assay: Direct binding of radioactively labeled underivatized, aqueous soluble β(1-3)-glucan to human leukocyte membranes (time course, concentration-dependence, Scatchard)
Procedure: Bound radioactively labeled underivatized, aqueous soluble β(1-3)-glucan was separated from unbound ligand by centrifugation through a double layer density gradient, and the membrane pellet was solubilized and radioactivity determined. Equilibrium binding was achieved after 60 minutes at 37° C. at a concentration of 1 μg/ml radioactively labeled underivatized, aqueous soluble β(1-3)-glucan (FIG. 1).
Membrane-associated radioactivity was determined following centrifugation of the reaction mixture through a sucrose/oil density gradient as described in the Examples. Specific binding was calculated by subtracting non-specific binding from total binding. […]
Membranes were diluted to 2 to 5 mg/ml in HBSS with and without 1 mg/ml BSA. […] The tubes were spun at 15,000×g for 4-5 minutes and the tips containing the membrane pellets were removed, incubated in 300 μl SOLVABLE™ (New England Nuclear, Boston, Mass.) overnight at 50° C. to dissolve the pellet, and then radioactivity determined by liquid scintillation counting. No radioactivity was found in the oil layer in the absence of added membranes. […]

[2] = Competition of ^3H-PGG-Glucan binding to lactosyl ceramide in 96-well plate assay (FIGS. 14, 15); parameters: species or system bovine; settings: FIGS. 14 and 15
Source text: (§1) FIG. 14 is a graph of the comparison of underivatized, aqueous soluble β(1-3)-glucan and single helix competition of ^3H-underivatized, aqueous soluble β(1-3)-glucan binding in three assay formats. Underivatized, aqueous soluble β(1-3)-glucan or single helix glucan was used at designated concentrations to compete for ^3H-underivatized, aqueous soluble β(1-3)-glucan binding to lactosyl ceramide (LacCer) in a 96-well plate (triangles), or to lactosyl ceramide in reconstituted membranes (squares), or to human leukocyte membranes (circles). Open symbols represent underivatized, aqueous soluble β(1-3) glucan, and closed symbols represent single helix. Maximum competition was assigned at the highest concentration of underivatized, aqueous soluble β(1-3)-glucan used as competitor in each type of assay.
FIG. 15 is a graphic illustration of data showing that underivatized, aqueous soluble β(1-3) glucan and high molecular weight underivatized, aqueous soluble β(1-3) glucan (Network) compete more effectively for ^3H-underivatized, aqueous soluble β(1-3)-glucan binding to lactosyl ceramide in a 96-well plate assay than do single helix or laminarin. […]
Lactosyl ceramide or the sample to be measured was suspended in ethanol. […] The plate was incubated at 60° C. for 5 minutes, then supernatants were removed and counted.

[3] = Competition of ^3H-PGG-Glucan binding to lactosyl ceramide in reconstituted membranes (FIG. 14)
Source text: as §1
Membranes were prepared from the receptor-negative cell line, U937, and extracted with chloroform/methanol as described above. The upper and lower layers were combined after removal of the proteinaceous interphase and dried under a stream of argon with the sample to be assayed for binding (lactosyl ceramide or fractions from the purification). […]
The dried lipid/sample preparations were resuspended in HBSS (500 μL) by brief sonication, and centrifuged for 10 minutes at 12,000×g. […] Pellets were then dissolved in SOLVABLE™, scintillation fluid was added, and radioactivity was measured.

NF-IL6 = assay: EMSA of NF-IL6 activation in human neutrophils; format: cell-based; settings: 3 μg/ml, 60 minutes at 37° C., relative to control or dextran (FIG. 16B)
Procedure: Purified human neutrophils were incubated with or without underivatized, aqueous soluble β(1-3)-glucan (3 μg/ml) or dextran (3 μg/ml) for 60 minutes at 37° C. Nuclear extracts were prepared and protein/DNA complex formation assessed by electrophoretic mobility shift assay (EMSA). As shown in FIGS. 16A and 16B, underivatized, aqueous soluble β(1-3)-glucan increased the binding of nuclear extract proteins to an NF-kB or NF-IL6 specific 32P-labeled oligonucleotide probe relative to extracts from either control or dextran-treated neutrophils.
Human neutrophils (4.5×10^6 cells/ml; 10 ml total) purified as described above were incubated in RPMI+10% FCS (Sigma Chemical Co.) for 30 minutes at 37° C. Underivatized, aqueous soluble β(1-3)-glucan or dextran (both at 3 μg/ml) were then added and incubation continued an additional 60 minutes at 37° C. Nothing was added to control cells. At the end of the incubation, cells were washed in ice cold PBS+20 mM EDTA and nuclear extracts prepared and EMSAs performed as described above.

## underivatized, aqueous soluble β(1-3)-glucan [PGG-Glucan]
[1]
  binding to its receptor at room temperature or below (in words): does not bind
[2]
  competition for ^3H-underivatized, aqueous soluble β(1-3)-glucan binding to LacCer in the 96-well plate assay (in words): competes
[3]
  competition for ^3H-underivatized, aqueous soluble β(1-3)-glucan binding to LacCer in the reconstitution assay (in words): competes
NF-IL6
  binding of nuclear extract proteins to NF-IL6 specific 32P-labeled probe (EMSA, in words): increased
